Patent publication US9828352B2, “Phenyl carbamates and their use as inhibitors of the fatty acid amide hydrolase (FAAH) enzyme and modulators of the D3 dopamine receptor (D3DR)” (FONDAZIONE ISTITUTO ITALIANO DI TECNOLOGIA, priority 2013, dated 2017)
Counter-ions that a name gives are not always drawn.

Assays:
human-D3R = biological target: T1, human-D3R (Homo sapiens, UniProt P35462); assay: D3 Dopamine Receptor (D3dR) cellular assay, cAMP HTRF functional assay in human-D3R expressing CHO cells; assay type: cell-based; settings: for Emax: CHO, 0.5 h, % of 300 nM Dopamine response, read-out: Dopamine D3 % of Agonist Activity; for EC50: cAMP assay, CHO human-D3R, one experiment in duplicate
T1 construct: expressed in transfected cells; host or cells: CHO cell line stably transfected with human D3R
Protocol: D3 Dopamine Receptor (D3dR) Cellular Assay
Activity on D3R was tested with a cAMP functional assay on a stably transfected human-D3R expressing CHO cell line. On the day of the assay performance the cells were washed twice with PBS (w/o calcium and magnesium) and dislodged with a cell scraper, transferred to PBS, centrifuged and re-suspended in HBSS (w/o calcium and magnesium), supplemented with 1 g/L glucose and […] IBMX. The cell suspension was seeded on a 384 well plate (Greiner) and the assay was performed by adding compounds either test compounds alone (for agonist activity), or with test compound after a pre-incubation with 10 nM Dopamine as a stimulant (for antagonistic activity). After incubation (30 min at RT) the cell stimulation was stopped by adding the detecting reagents (cAMP-XL665 and anti-cAMP cryptate) diluted in lysis buffer. The signal was quantified by Homogenous Time-Resolved Fluorescence (HTRF) on a Perkin Elmer Envision plate reader after one hour of incubation at RT.
(§1) EC50 or IC50 values (concentrations causing half-maximal response or inhibition of control agonist response) were determined by non-linear regression analysis of the Log [concentration]/response curves generated with mean replicate values using a four parameter Hill equation curve fitting with GraphPad Prism 5 (GraphPad Software Inc., CA—USA).

human FAAH-1 = biological target: T2, human FAAH-1 (Homo sapiens, UniProt O00519); assay: Human recombinant Fatty Acid Amide Hydrolase-1 (FAAH-1) fluorescent assay, Hek293-hFAAH-1 membranes; assay type: biochemical; settings: 3 separate experiments, each in triplicate
T2 construct: expressed in transfected cells; host or cells: Hek293 cells stably transfected with human FAAH-1; membrane preparation
T2 sequence (O00519 1-579): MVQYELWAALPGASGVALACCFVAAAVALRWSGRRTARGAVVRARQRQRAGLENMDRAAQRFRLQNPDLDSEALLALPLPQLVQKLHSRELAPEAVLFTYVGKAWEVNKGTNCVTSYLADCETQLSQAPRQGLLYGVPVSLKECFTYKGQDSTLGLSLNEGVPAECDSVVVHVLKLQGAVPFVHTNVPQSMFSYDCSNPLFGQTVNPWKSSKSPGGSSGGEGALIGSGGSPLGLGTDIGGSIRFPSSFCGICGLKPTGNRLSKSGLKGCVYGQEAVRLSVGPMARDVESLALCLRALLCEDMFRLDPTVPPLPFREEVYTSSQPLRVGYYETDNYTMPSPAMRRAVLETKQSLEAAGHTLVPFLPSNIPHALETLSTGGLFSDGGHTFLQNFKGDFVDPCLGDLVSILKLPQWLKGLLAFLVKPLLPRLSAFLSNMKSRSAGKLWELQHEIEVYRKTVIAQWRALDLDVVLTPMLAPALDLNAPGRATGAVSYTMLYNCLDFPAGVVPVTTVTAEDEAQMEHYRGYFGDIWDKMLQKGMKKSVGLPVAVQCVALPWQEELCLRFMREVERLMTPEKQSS
Protocol: Human Recombinant Fatty Acid Amide Hydrolase-1 (FAAH-1) Fluorescent Assay
Hek293 cells stably transfected with human FAAH-1 were maintained in DMEM containing 10% FBS, 1% pen/strep and 500 μg/mL G418 to maintain selective pressure. Cells were scraped off with cold PBS1× pH7.4 from plates and collected by centrifugation (500 g, 10 minutes, 4° C.); cells pellets were re-suspended in homogenizing buffer (20 mM Tris-HCl pH7.4, 0.32M sucrose), disrupted by sonication (10 pulses, 5 times) and centrifuged at 800×g for 15 minutes at 4° C.; the resultant supernatants collected were then centrifuged at 105,000×g for 1 hr at 4° C. and membranes pellets were re-suspended in PBS1× pH7.4.
Protein concentration was measured and samples aliquot stored at −80° C. until use.
The blank (no activity) was prepared using 180 μL of assay buffer without Hek293-hFAAH-1 membrane preparation and 10 μL of DMSO.
After 50 minutes of pre-incubation of compounds with the enzyme at 37° C., the reaction was started by the addition of 10 μL of substrate (AMC Arachidonyl Amide, N.10005098, Cayman Chemical) for 30 min at 37° C. The substrate is prepared in Ethanol in order to achieve the final concentration of 2 μM.
Fluorescence was detected with Tecan Infinite M200 nanoquant (Tecan Group Ltd.) at an excitation wavelength 350 nm and an emission wavelength 460 nm.
as §1

T1 sequence (P35462 whole entry): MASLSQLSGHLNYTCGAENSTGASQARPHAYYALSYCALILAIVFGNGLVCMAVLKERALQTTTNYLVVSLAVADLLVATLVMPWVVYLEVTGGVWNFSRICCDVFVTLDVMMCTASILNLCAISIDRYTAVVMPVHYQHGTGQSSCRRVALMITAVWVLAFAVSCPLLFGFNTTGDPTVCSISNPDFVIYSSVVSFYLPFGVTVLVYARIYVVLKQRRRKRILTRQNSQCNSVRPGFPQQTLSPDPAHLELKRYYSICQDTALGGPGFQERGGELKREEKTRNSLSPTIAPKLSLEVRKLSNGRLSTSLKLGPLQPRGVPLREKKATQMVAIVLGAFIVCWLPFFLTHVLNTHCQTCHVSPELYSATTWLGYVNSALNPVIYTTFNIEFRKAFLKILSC

| Compound | Emax (human-D3R) [%] | EC50 (human-D3R) [nM] | IC50 (human FAAH-1) [nM] |
| --- | --- | --- | --- |
| O=C(NCCCCN1CCN(c2cccc(Cl)c2Cl)CC1)Oc1cccc(N2CCOCC2)c1 [Example 8, (3-morpholinophenyl) N-[4-[4-(2,3-dichlorophenyl)piperazin-1-yl]butyl] carbamate hydrochloride] | 83 | 35 | 3.4 |
| O=C(NCCCCN1CCN(c2cccc(Cl)c2Cl)CC1)Oc1cccc(N2CCC(F)(F)CC2)c1 [Example 9, [3-(4,4-difluoro-1-piperidinyl)phenyl] N-[4-[4-(2,3-dichlorophenyl)piperazin-1-yl]butyl]carbamate hydrochloride] | 54.7 | 9.2 | 17 |
| O=C(NCCCCN1CCN(c2cccc(Cl)c2Cl)CC1)Oc1ccc(N2CCC(F)(F)CC2)cc1 [Example 12, [4-(4,4-difluoro-1-piperidinyl)phenyl] N-[4-[4-(2,3-dichlorophenyl)piperazin-1-yl]butyl]carbamate hydrochloride] | 90.7 | 49 | 9.9 |
| Cc1ccccc1N1CCN(CCCNC(=O)Oc2cccc(N3CCOCC3)c2)CC1 [Example 13, (3-morpholino phenyl) N-[3-[4-(o-tolyl)piperazin-1-yl]propyl]carbamate hydrochloride] | 59.4 | 150 | 4.4 |
| NC(=O)c1cccc(-c2cccc(OC(=O)NCCCCN3CCC(c4ccccc4)CC3)c2)c1 [Example 14, [3-(3-carbamoylphenyl)phenyl] N-[4-(4-phenyl-1-piperidinyl)butyl]carbamate hydrochloride] | 74.3 | 36 | 9.6 |
| Cc1ccccc1N1CCN(CCCNC(=O)Oc2ccc(-c3ccccc3)cc2)CC1 [Example 15, (4-phenylphenyl) N-[3-[4-(o-tolyl)piperazin-1-yl]propyl]carbamate] | 82 | 290 | 4.1 |
| O=C(NCCCN1CCN(c2ccccc2C(F)(F)F)CC1)Oc1ccc(-c2ccccc2)cc1 [Example 16, (4-phenylphenyl) N-[3-[4-[2-(trifluoromethyl)phenyl]piperazin-1-yl]propyl] carbamate] | 95.4 | 300 | 12 |
| O=C(NCCCN1CCN(c2cccc(Cl)c2Cl)CC1)Oc1ccc2c(c1)[nH]c1ccccc12 [Example 17, 9H-carbazol-2-yl N-[3-[4-(2,3-dichlorophenyl)piperazin-1-yl]propyl]carbamate] | 91 | 150 | 4.8 |
| O=C(NCCCN1CCN(c2ccccc2C(F)(F)F)CC1)Oc1ccc(N2CCC(F)(F)CC2)cc1 [Example 18, [4-(4,4-difluoro-1-piperidinyl)phenyl] N-[3-[4-[2-(trifluoromethyl)phenyl]piperazin-1-yl]propyl]carbamate hydrochloride] | 86 | 190 | 28 |
| NC(=O)c1cccc(-c2ccc(OC(=O)NCCCCN3CCN(c4cccc(Cl)c4Cl)CC3)cc2F)c1 [Example 21, [4-(3-carbamoylphenyl)-3-fluoro-phenyl] N-[4-[4-(2,3-dichlorophenyl)piperazin-1-yl]butyl]carbamate] | 69.4 |  | 0.96 |
| O=C(NCCCCN1CCN(c2cccc(Cl)c2Cl)CC1)Oc1ccc(-c2ccccn2)cc1 [Example 24, [4-(2-pyridyl)phenyl] N-[4-[4-(2,3-dichlorophenyl)piperazin-1-yl]butyl]carbamate] | 70.4 | 5.92 | 0.21 |
| NC(=O)c1cccc(-c2ccc(OC(=O)NCCCCN3CCN(c4ccccc4)CC3)cc2)c1 [Example 25, [4-(3-carbamoylphenyl)phenyl] N-[4-(4-phenylpiperazin-1-yl)butyl]carbamate] | 87.5 | 3.6 | 3.5 |
| O=C(NCCCCN1CCN(c2cccc(Cl)c2Cl)CC1)Oc1ccc2c(c1)[nH]c1ccccc12 [Example 28, 9H-carbazol-2-yl N-[4-[4-(2,3-dichlorophenyl)piperazin-1-yl]butyl]carbamate] | 89.7 | 120 | 8 |
| COc1ccccc1N1CCN(CCCCNC(=O)Oc2ccc3c(c2)[nH]c2ccccc23)CC1 [Example 33, 9H-carbazol-2-yl N-[4-[4-(2-methoxyphenyl)piperazin-1-yl]butyl]carbamate] | 65.9 | 12 | 37 |
| O=C(NCCC(F)CN1CCN(c2cccc(Cl)c2Cl)CC1)Oc1ccc(-c2ccccc2)cc1 (centres unmarked) [Example 36, (4-phenylphenyl) N-[4-[4-(2,3-dichlorophenyl)piperazin-1-yl]-3-fluoro-butyl] carbamate] | 87.6 | 150 | 1.3 |
| COc1cc(OC(=O)NCCCN2CCN(c3ccccc3OC)CC2)ccc1-c1ccccc1 [Example 37, (3-methoxy-4-phenyl-phenyl) N-[3-[4-(2-methoxyphenyl)piperazin-1-yl]propyl] carbamate hydrochloride] | 73.5 | 38 | 7.8 |
| O=C(NCC(CF)N1CCN(c2cccc(Cl)c2Cl)CC1)Oc1ccc(-c2ccccc2)cc1 (centres unmarked) [Example 41, (4-phenylphenyl) N-[2-[4-(2,3-dichlorophenyl)piperazin-1-yl]-3-fluoro-propyl] carbamate hydrochloride] |  |  | 9.9 |
| COc1ccccc1N1CCN(CCCNC(=O)Oc2ccc(Cc3ccccc3)cc2)CC1 [Example 43, (4-benzylphenyl) N-[3-[4-(2-methoxyphenyl)piperazin-1-yl]propyl]carbamate hydrochloride] |  |  | 18 |
| COc1ccccc1N1CCN(CCCNC(=O)Oc2ccc(C(=O)c3ccccc3)cc2)CC1 [Example 44, (4-benzoylphenyl) N-[3-[4-(2-methoxyphenyl)piperazin-1-yl]propyl]carbamate hydrochloride] |  |  | 11 |
| COc1ccccc1N1CCN(CCCCNC(=O)Oc2ccc(C(=O)c3ccccc3)cc2)CC1 [Example 45, (4-benzoylphenyl) N-[4-[4-(2-methoxyphenyl)piperazin-1-yl]butyl]carbamate hydrochloride] | 51.4 | 29 | 5.3 |
